Measurements as given in paper PMC10482975 (Nature Communications, 2023).
Numbering of substitutions follows the chain as printed.

Experiments:
[1] = target: T1, M5 mAChR WT (Homo sapiens, UniProt P08912); test: [3H]-NMS radioligand dissociation binding, M5 mAChR WT
T1 construct: expressed in transfected cells
T1 sequence (P08912 1-532): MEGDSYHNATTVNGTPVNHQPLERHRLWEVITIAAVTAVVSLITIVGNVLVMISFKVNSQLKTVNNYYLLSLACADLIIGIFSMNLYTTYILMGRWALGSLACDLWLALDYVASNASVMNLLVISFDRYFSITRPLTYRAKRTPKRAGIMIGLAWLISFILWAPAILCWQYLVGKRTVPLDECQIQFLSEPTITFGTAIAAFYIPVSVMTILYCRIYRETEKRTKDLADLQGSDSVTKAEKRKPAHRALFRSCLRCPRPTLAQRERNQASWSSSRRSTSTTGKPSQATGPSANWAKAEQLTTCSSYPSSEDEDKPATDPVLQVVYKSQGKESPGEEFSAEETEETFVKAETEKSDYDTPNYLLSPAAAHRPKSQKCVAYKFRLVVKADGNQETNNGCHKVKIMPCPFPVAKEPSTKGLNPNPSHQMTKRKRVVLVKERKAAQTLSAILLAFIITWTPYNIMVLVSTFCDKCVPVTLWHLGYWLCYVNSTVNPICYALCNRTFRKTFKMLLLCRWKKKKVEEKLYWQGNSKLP
Description: (§1) Flp-In Chinese hamster ovary (CHO) (Thermo Fisher Scientific) cells stably expressing mAChR WTs or mutant constructs were cultured in Dulbecco’s modified Eagle’s medium (DMEM, Invitrogen) containing 5% foetal bovine serum (FBS; ThermoTrace) and […] of hygromycin (Roche) in a humidified incubator (37 °C, 5% CO2). Upon reaching confluence, media was removed, cells were washed with phosphate buffered saline (PBS) and harvested from tissue culture flasks using versene (PBS with 0.2 g EDTA). Cells were then pelleted through centrifugation at 350 × g for three minutes followed by resuspension in DMEM + 5% FBS. Cells were then either plated for an assay or reseeded into a tissue culture flask.

[2] = target: T2, M2 mAChR WT (Homo sapiens, UniProt P08172); test: [3H]-NMS radioligand dissociation binding, M2 mAChR WT
T2 construct: expressed in transfected cells
T2 sequence (P08172 1-466): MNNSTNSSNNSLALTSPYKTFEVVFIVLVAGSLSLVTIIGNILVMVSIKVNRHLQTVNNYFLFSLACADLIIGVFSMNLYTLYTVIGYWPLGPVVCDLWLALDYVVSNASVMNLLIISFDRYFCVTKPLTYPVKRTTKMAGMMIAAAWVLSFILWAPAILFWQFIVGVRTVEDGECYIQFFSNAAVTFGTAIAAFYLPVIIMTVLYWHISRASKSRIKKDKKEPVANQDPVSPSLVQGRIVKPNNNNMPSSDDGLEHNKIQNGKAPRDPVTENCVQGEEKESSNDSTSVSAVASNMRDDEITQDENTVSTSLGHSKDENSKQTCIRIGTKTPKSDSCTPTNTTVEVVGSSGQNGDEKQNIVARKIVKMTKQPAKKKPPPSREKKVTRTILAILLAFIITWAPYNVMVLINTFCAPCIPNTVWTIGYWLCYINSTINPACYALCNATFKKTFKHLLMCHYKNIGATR
Description: as §1

[3] = target: T3, M4 mAChR F186A (Homo sapiens, UniProt P08173, F186A); test: [3H]-NMS radioligand dissociation binding, M4 mAChR F186A; conditions: for [3H]-NMS binding remaining (0 min = 100), MEAN: M4 F186A mAChR
T3 construct: expressed in transfected cells
T3 sequence (P08173 1-479 F186A): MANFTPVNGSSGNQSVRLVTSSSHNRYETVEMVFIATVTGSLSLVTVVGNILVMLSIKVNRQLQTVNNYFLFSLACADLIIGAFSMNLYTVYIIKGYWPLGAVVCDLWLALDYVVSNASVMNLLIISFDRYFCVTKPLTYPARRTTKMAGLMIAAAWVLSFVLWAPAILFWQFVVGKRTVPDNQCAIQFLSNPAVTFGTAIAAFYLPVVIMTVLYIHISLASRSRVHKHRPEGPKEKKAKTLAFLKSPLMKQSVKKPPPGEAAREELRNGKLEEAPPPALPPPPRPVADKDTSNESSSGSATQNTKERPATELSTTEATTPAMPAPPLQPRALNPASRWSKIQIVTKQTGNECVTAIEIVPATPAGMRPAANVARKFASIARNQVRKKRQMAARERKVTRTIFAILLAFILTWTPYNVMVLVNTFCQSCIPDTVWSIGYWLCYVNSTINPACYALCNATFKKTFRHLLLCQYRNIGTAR
Description: as §1

[4] = target: T4, M4 mAChR WT (Homo sapiens, UniProt P08173); test: [3H]-NMS radioligand dissociation binding, M4 mAChR WT; conditions: for [3H]-NMS binding remaining (0 min = 100), MEAN: M4 mAChR
T4 construct: expressed in transfected cells
T4 sequence (P08173 1-479): T3 sequence (P08173 1-479 F186A) with A186F
Description: as §1

[5] = 10uM Atr + 30uM LY2033, 180 min
[6] = 10uM Atr + 30uM LY2033, 300 min
[7] = 10uM Atr + 10 μM Iperoxo, 10 min
[8] = 10uM Atr + 10 μM Iperoxo, 15 min
[9] = 10uM Atr + 10 μM Iperoxo, 30 min
[10] = 10uM Atr + 10 μM Iperoxo, 90 min
[11] = 10uM Atr + 10 μM Iperoxo, 180 min
[12] = 10uM Atr + 10 μM Iperoxo, 300 min

In the case of `COc1nc2sc(C(=O)NC3CC3)c(N)c2c(C)c1Cl` [LY2033298], the “[3H]-NMS binding remaining (0 min = 100), MEAN” value (shortened to “[3H]-NMS binding remaining”) ([1]; 10uM Atr + 30uM LY2033, 10 min) is reported as 102.761, the “[3H]-NMS binding remaining” value ([1]; 10uM Atr + 30uM LY2033, 15 min) is reported as 100.045 and the “[3H]-NMS binding remaining” value ([1]; 10uM Atr + 30uM LY2033, 30 min) is reported as 98.0655. The “[3H]-NMS binding remaining” value ([1]; 10uM Atr + 30uM LY2033, 90 min) was 75.4577, the “[3H]-NMS binding remaining” value ([1]; 10uM Atr + 30uM LY2033, 120 min) was 66.5441 and the “[3H]-NMS binding remaining” value ([1]; 10uM Atr + 30uM LY2033, 210 min) was 53.7527. For the same compound, the “[3H]-NMS binding remaining” value ([2]; 10uM Atr + 30uM LY2033, 5 min) was 100.231, the “[3H]-NMS binding remaining” value ([2]; 10uM Atr + 30uM LY2033, 10 min) was 104.86 and the “[3H]-NMS binding remaining” value ([2]; 10uM Atr + 30uM LY2033, 15 min) was 105.465. For the same compound, the “[3H]-NMS binding remaining” value ([2]; 10uM Atr + 30uM LY2033, 30 min) was 97.2904, the “[3H]-NMS binding remaining” value ([2]; 10uM Atr + 30uM LY2033, 40 min) was 99.7247 and the “[3H]-NMS binding remaining” value ([2]; 10uM Atr + 30uM LY2033, 60 min) was 83.2953. The “[3H]-NMS binding remaining” value ([2]; 10uM Atr + 30uM LY2033, 90 min) was 74.9771, the “[3H]-NMS binding remaining” value ([3]; 10uM Atr + 30uM LY2033, 30 min) was 80.3007 and the “[3H]-NMS binding remaining” value ([3]; 10uM Atr + 30uM LY2033, 90 min) was 48.89. The “[3H]-NMS binding remaining” value [3, 5] was 55.5733, the “[3H]-NMS binding remaining” value [3, 6] was 28.0247 and the “effect on [3H]-NMS dissociation (in words)” value ([3]; M4 mAChR F186A mutant) was “a similar effect was observed”. For the same compound, the “[3H]-NMS binding remaining” value ([4]; 10uM Atr + 10uM LY2033, 30 min) was 112.685, the “[3H]-NMS binding remaining” value ([4]; 10uM Atr + 10uM LY2033, 60 min) was 100.725 and the “[3H]-NMS binding remaining” value ([4]; 10uM Atr + 10uM LY2033, 90 min) was 100.81. For the same compound, the “[3H]-NMS binding remaining” value ([4]; 10uM Atr + 10uM LY2033, 180 min) was 78.3598, the “[3H]-NMS binding remaining” value ([4]; 10uM Atr + 10uM LY2033, 300 min) was 57.1596 and the “[3H]-NMS binding remaining” value ([4]; 10uM Atr + 30uM LY2033, 30 min) was 97.9955. The “[3H]-NMS binding remaining” value ([4]; 10uM Atr + 30uM LY2033, 90 min) was 92.0634, the “[3H]-NMS binding remaining” value [4, 5] was 80.808 and the “[3H]-NMS binding remaining” value [4, 6] was 69.858.

In the case of `C[N+](C)(C)CC#CCOC1=NOCC1` [iperoxo], the “[3H]-NMS binding remaining” value [1, 7] is reported as 98.7473, the “[3H]-NMS binding remaining” value [1, 8] is reported as 104.707 and the “[3H]-NMS binding remaining” value [1, 9] is reported as 92.7543. The “[3H]-NMS binding remaining” value [1, 10] was 56.424, the “[3H]-NMS binding remaining” value ([1]; 10uM Atr + 10 μM Iperoxo, 120 min) was 46.6348 and the “[3H]-NMS binding remaining” value ([1]; 10uM Atr + 10 μM Iperoxo, 210 min) was 27.5139. For the same compound, the “[3H]-NMS binding remaining” value ([2]; 10uM Atr + 10 μM Iperoxo, 5 min) was 84.1199, the “[3H]-NMS binding remaining” value [2, 7] was 57.067 and the “[3H]-NMS binding remaining” value [2, 8] was 42.2975. For the same compound, the “[3H]-NMS binding remaining” value [2, 9] was 18.0197, the “[3H]-NMS binding remaining” value ([2]; 10uM Atr + 10 μM Iperoxo, 40 min) was 11.4621 and the “[3H]-NMS binding remaining” value ([2]; 10uM Atr + 10 μM Iperoxo, 60 min) was 5.852. For the same compound, the “[3H]-NMS binding remaining” value [2, 10] was 5.287, the “[3H]-NMS binding remaining” value [3, 9] was 78.4972 and the “[3H]-NMS binding remaining” value [3, 10] was 56.5181. For the same compound, the “[3H]-NMS binding remaining” value [3, 11] was 43.1916, the “[3H]-NMS binding remaining” value [3, 12] was 30.9448 and the “[3H]-NMS binding remaining” value [4, 9] was 88.7252. The “[3H]-NMS binding remaining” value [4, 10] was 52.6732, the “[3H]-NMS binding remaining” value [4, 11] was 31.8571 and the “[3H]-NMS binding remaining” value [4, 12] was 17.3639. For the same compound, the “effect on [3H]-NMS dissociation (in words)” value ([4]; wild-type M4 mAChR, increasing concentrations of xanomeline, saturating concentration of iperoxo) was “had no effect”.
